Results on 10 compounds are retold here after US4443468A, “Benzofuran derivatives, process for their preparation and their therapeutic applications” (Laboratoires Jacques Logeais, priority 1978, dated 1984).

Holding throughout (assay type): in vivo
The test system of data set [1] is anoxia induced dysrhythmias. The experiment in a line: Anoxia induced dysrhythmias in rats, after pre-treatment with a subliminal dosage of aconitine. The method, then:
(§1) The anti-dysrhythmic activity of the compounds of the formula (I) was evaluated according to the following pharmacological tests:
anoxia induced dysrhythmias in rats, after pre-treatment with a subliminal dosage of aconitine (combination of the effects of a sympathetic stimulation with those due to perturbations of ionic conductions);

The nature of data set [2]: Acute toxicity in mice. The settings on record: mouse, in vivo, single dose. The method, then: (§2) (a) Acute toxicity in mice
(§3) Each compound was administered orally, intra-peritoneally, or intravenously as a single dose.

For data set [3], the system named is maximum stimulation heart rate (FMS). The experiment in a line: Maximum stimulation heart rate (FMS) in rabbits. The method, then:
as §1
maximum stimulation heart rate (FMS)
The FMS, as determined in vivo in rabbits by cardiac stimulation by means of a stimulation probe placed in the left auricular cavity, provides an overall determination of the duration of the refractory period of the conductive routes and of the fibres of the myocardium.

Data set [4] deals with mice. The experiment in a line: Acute toxicity in mice. Conditions: single dose, behavior observed. As for the experimental part: as §2, §3
In data set [5] the test system is dysrhythmia on central stimulation. The experiment in a line: Dysrhythmia on central stimulation in rabbits. The method, then:
The anti-dysrhythmic activity of the compounds of the formula (I) was evaluated according to the following pharmacological tests: […]

In data set [6] the test system is aconitine induced dysrhythmias. The experiment in a line: Aconitine induced dysrhythmias in rats. The method, then:
as §1
aconitine induced dysrhythmias in rats: this agent has a deeply perturbating effect on the ionic permeability of the membranes;

Data set [7] concerns ouabaine induced dysrhythmias. The experiment in a line: Ouabaine induced dysrhythmias in guinea-pigs. The settings on record: 10-20 mg/kg i.v., guinea-pig. The method, then:
as §1
ouabaine induced dysrhythmias in guinea-pigs: at toxic dosages, ouabaine affects transmembrane ionic exchanges; on the other hand, it induces a concomitant sympathetic activation.

The test system of data set [8] is dysrhythmias induced by localized ischemia. The experiment in a line: Method according to Harris, in dogs (coronary ligation). The settings on record: 10 mg/kg i.v. As for the experimental part:
as §1
method according to Harris, in dogs: coronary ligation and dysrhythmias induced by localized ischemia.

[9] abbreviates: ip, intra-peritoneal, read-out: LD50, i.p.
Where [10] appears, read: intravenous, read-out: LD50, i.v.

Where a name gives a salt, the structure may show the parent alone. Read-outs that look alike come from different tables or passages of the source.

By LD50 is commonly meant the dose expected to kill half of the subjects tested. With `CC(C)NC1=NCC(c2cc3ccccc3o2)C1` (stereo not shown) [Example 3, 2-Isopropylamino-4-(2-benzofuryl)Δ-1-pyrroline hydrochloride], the “Anoxia Rat” value in data set [1] (10 mg/kg i.v.) was “+”. Further, the 50% lethal dose (LD50) in data set [2] (setting [9]) came to 58 mg/kg; in data set [2] (oral, read-out: LD50, p.o.), 200 mg/kg.
Regarding `c1ccc(NC2=NCC(c3cc4ccccc4o3)C2)cc1` (stereo not shown) [Example 6, 2-Anilino-4-(2-benzofuryl)Δ-1-pyrroline hydrochloride], in data set [3] (2.5 mg/kg i.v.), the “FMS Rabbit” value is “+”. Moreover, the “Anoxia Rat” value in data set [1] (i.v., dose not given) was 0. In addition, the “Remarks (acute toxicity)” value in data set [4] was “Hyperesthesia”. In addition, the LD50 in data set [2] (setting [9]) is 58 mg/kg; in data set [2] (oral, read-out: LD50, p.o.) it was 110 mg/kg. The “Central stimulation Rabbit” value in data set [5] (2.5 mg/kg i.v.) is “+”.
For `c1ccc2oc(C3CN=C(N4CCCC4)C3)cc2c1` (stereo not shown) [Example 8, 2-Pyrrolidino-4-(2-benzofuryl)Δ-1-pyrroline hydrochloride], in data set [1] (10 mg/kg i.v.), the “Anoxia Rat” value is listed as “+”. In addition, in data set [6] (10 mg/kg i.v.), the “Aconitine Rat” value is “+”. In addition, the LD50 in data set [2] (setting [9]) stood at 76 mg/kg; in data set [2] (oral, read-out: LD50, p.o.), 200 mg/kg.
Regarding `CCN(CC)C1=NCC(c2cc3ccccc3o2)C1` (stereo not shown) [Example 5, 2-Diethylamino-4-(2-benzofuryl)Δ-1-pyrroline fumarate], the LD50 was determined as 58 mg/kg in data set [2] (setting [9]) and 180 mg/kg in data set [2] (oral, read-out: LD50, p.o.).
`c1ccc2oc(C3CN=C(N4CCOCC4)C3)cc2c1` (stereo not shown) [Example 9, 2-Morpholino-4-(2-benzofuryl)Δ-1-pyrroline hydrochloride]: the “Anoxia Rat” value in data set [1] (i.v., dose not given) is 0. Besides, the LD50 in data set [2] (setting [9]) was 142 mg/kg; in data set [2] (oral, read-out: LD50, p.o.) it was > 200 mg/kg.
Regarding `CN(C)C1=NCC(c2cc3ccccc3o2)C1` (stereo not shown) [Example 4, 2-Dimethylamino-4-(2-benzofuryl)Δ-1-pyrroline hydrochloride], in data set [7], the “Ouabaine Cobaye” value is “+”. The “FMS Rabbit” value in data set [3] (2.5 mg/kg i.v.) is recorded as “+”. The “Anoxia Rat” value in data set [1] (10-20 mg/kg i.v.) is “++”. In data set [4], the “Remarks (acute toxicity)” value is “convulsions”. In addition, the 50% lethal dose (LD50) in data set [2] (setting [10]) was 38.5 mg/kg; in data set [2] (oral, read-out: LD50, p.o.), 240 mg/kg. For the same compound, the “Central stimulation Rabbit” value in data set [5] (5 mg/kg i.v.) is given as “++”. In addition, the “Harris Ligation Dog” value in data set [8] is recorded as “+”.
Consider `c1ccc(CCNC2=NCC(c3cc4ccccc4o3)C2)cc1` (stereo not shown) [Example 7, 2-Phenethylamino-4-(2-benzofuryl)Δ-1-pyrroline hydrochloride], for which the “FMS Rabbit” value in data set [3] (2 mg/kg i.v.) is “+”. Besides, the “Aconitine Rat” value in data set [6] (5 mg/kg i.v.) is reported as “+”. Moreover, the “Remarks (acute toxicity)” value in data set [4] is “Convulsions”. In addition, the 50% lethal dose (LD50) is 98 mg/kg in data set [2] (setting [9]) and > 200 mg/kg in data set [2] (oral, read-out: LD50, p.o.). Moreover, in data set [5] (i.v., dose not given), the “Central stimulation Rabbit” value is on record as 0.
Regarding `CN1CCN(C2=NCC(c3cc4ccccc4o3)C2)CC1` (stereo not shown) [Example 10, 2-(4-Methyl-piperazino)-4-(2-benzofuryl)Δ-1-pyrroline methanesulfonate], in data set [1] (10 mg/kg i.v.), the “Anoxia Rat” value is recorded as “+”. The LD50 in data set [2] (setting [9]) is 142 mg/kg; in data set [2] (oral, read-out: LD50, p.o.), > 200 mg/kg.
Consider `NC1=NCC(c2cc3ccccc3o2)C1` (stereo not shown) [Example 1, 2-Amino-4-(2-benzofuryl)Δ-1-pyrroline hydrochloride], for which the LD50 in data set [2] (setting [10]) was found to be 46 mg/kg; in data set [2] (setting [9]), 58 mg/kg; in data set [2] (oral, read-out: LD50, p.o.), 115 mg/kg.
On to `CNC1=NCC(c2cc3ccccc3o2)C1` (stereo not shown) [Example 2, 2-Methylamino-4-(2-benzofuryl)Δ-1-pyrroline hydrochloride], for which, in data set [3] (7.5 mg/kg i.v.), the “FMS Rabbit” value is “+”. Moreover, the “Aconitine Rat” value in data set [6] (10 mg/kg i.v.) was “+”. Moreover, the LD50 is 58 mg/kg in data set [2] (setting [9]) and > 200 mg/kg in data set [2] (oral, read-out: LD50, p.o.). The “Central stimulation Rabbit” value in data set [5] (3 mg/kg i.v.) is reported as “+”.
